{
  "source": "patent US20110124620A1",
  "about": "“SPHINGOSINE 1 PHOSPHATE RECEPTOR MODUATORS AND THEIR USE TO TREAT MUSCLE INFLAMMATION” (priority 2008, published 2011)",
  "system": "Primary Human Myotubes",
  "assay": "Effect on cytokine-induced atrophy of primary human myotubes (myotube diameter)",
  "format": "cell-based",
  "description": "In Vitro: Effect on Cytokine-Induced Atrophy of Primary Human Myotubes.\nHuman skeletal muscle (skMC) cells are obtained from Cambrex (#CC-2561). For experiments skMC stocks are thawed and maintained in SkBM (Lonza CC-3161) containing 20% FCS and 0.1% gentamycin at 37° C., 5% CO2. After 4-5 days cells are seeded for experiments onto six-well plates coated with matrigel (450,000/well) and grown at 37° C., 5% CO2 for one day. Cells are then washed 3× with SkBM and differentiated into myotubes with SkBM containing 1 μM SB431542 (ALK4/5 inhibitor; Sigma #S4317) for 4 days (SB431542 is removed 24 h prior cell treatment). Myotubes are then treated with test compound either in the absence or in the presence of a cytokine cocktail (TNFα 10 ng/ml, IL-1β 2 ng/ml, IFNγ 10 ng/ml) for 24 h in SkBM plus 0.1% gentamycin, washed once with CSB buffer: 80 mM pipes, […], 1 mM MgCl 6H20 and 4% PEG35000 (Fluka #94646) and fixed with 4% paraformaldehyde (Electron Microscopy Sciences #15714) in CSB for 15 min at room temperature. […] Average diameters of at least 40 myotubes are measured for each condition at three points separated by 50 μm along the length of the myotube.",
  "data": [
    {"molecule": "CCc1cc(C(C)=NOCc2ccc(C3CCCCC3)c(C(F)(F)F)c2)ccc1CN1CC(C(=O)O)C1", "note": "[Compound A, 1-{4-[1-(4-cyclohexyl-3-trifluoromethyl-benzyloxyimino)-ethyl]-2-ethyl-benzyl}-azetidine-3-carboxylic acid]", "values": [
      {"measurement": "effect on cytokine-induced atrophy (myotube diameter)", "setting": "Compound A 1 nM, cytokine cocktail (TNFα 10 ng/ml, IL-1β 2 ng/ml, IFNγ 10 ng/ml) for 24 h, cocktail alone gives approx. 20% decrease in myotube diameter vs vehicle control", "value": "block almost completely the cytokine-induced atrophy"},
      {"measurement": "effect on cytokine-induced atrophy (myotube diameter)", "setting": "higher concentrations of Compound A (above 1 nM), cytokine cocktail for 24 h", "value": "exert the same effect"}
    ]}
  ]
}
